Measured values reported in ChEMBL document CHEMBL2346544, “Design and synthesis of biotin- or alkyne-conjugated photoaffinity probes for studying the target molecules of PD 404182” (Bioorg Med Chem, 2013).

System: Human immunodeficiency virus 1
Test: Antiviral activity against HIV1 3B infected in HeLa cells expressing CD4/CCR5/beta-Gal after 48 hrs by MAGI assay
Assay type: functional, organism-based
Settings: Human immunodeficiency virus 1, 3B

| EC50 | Structure (SMILES) |
| --- | --- |
| 0.64 µM | C#CCOCc1ccc(C(=O)c2ccc(-c3ccc4c(c3)SC(=N)N3CCCN=C43)cc2)cc1 |
| 5.11 µM | N=C1Sc2cc(Br)ccc2C2=NCC3(CCN(C(=O)OCc4ccc(C(=O)c5ccc(COC(=O)NCCOCCOCCOCCNC(=O)CCCC[C@@H]6SC[C@@H]7NC(=O)N[C@@H]76)cc5)cc4)CC3)CN12 |
| 6.87 µM | N=C1Sc2cc(-c3ccc(C(=O)c4ccc(COC(=O)NCCOCCOCCOCCNC(=O)CCCC[C@@H]5SC[C@@H]6NC(=O)N[C@@H]65)cc4)cc3)ccc2C2=NCCCN12 |
